Key:
Human PBMCs = assay: CD3/CD28 mediated PBMC proliferation assay; assay type: cell-based; details: proliferation of human PBMCs stimulated with anti-CD3 and anti-CD28, 72 hours, Cell Titer-Glo
Method in brief: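 PBMCs pre-treated 30 min with compound, then stimulated on plate-bound anti-CD3 (coated at 5 μg/mL) plus soluble anti-CD28 (2 μg/mL final) for 72 h at 37 °C. Proliferation measured as ATP by CellTiter-Glo; EC50 versus vehicle controls from dose-response curves.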

RLK/TXK = RLK/TXK (Homo sapiens (Human), UniProt P42681); assay: RLK/TXK kinase inhibition assay; assay type: biochemical; details: micro-fluidic detection, 3 hours at 25° C.
Sequence of RLK/TXK (P42681 whole entry): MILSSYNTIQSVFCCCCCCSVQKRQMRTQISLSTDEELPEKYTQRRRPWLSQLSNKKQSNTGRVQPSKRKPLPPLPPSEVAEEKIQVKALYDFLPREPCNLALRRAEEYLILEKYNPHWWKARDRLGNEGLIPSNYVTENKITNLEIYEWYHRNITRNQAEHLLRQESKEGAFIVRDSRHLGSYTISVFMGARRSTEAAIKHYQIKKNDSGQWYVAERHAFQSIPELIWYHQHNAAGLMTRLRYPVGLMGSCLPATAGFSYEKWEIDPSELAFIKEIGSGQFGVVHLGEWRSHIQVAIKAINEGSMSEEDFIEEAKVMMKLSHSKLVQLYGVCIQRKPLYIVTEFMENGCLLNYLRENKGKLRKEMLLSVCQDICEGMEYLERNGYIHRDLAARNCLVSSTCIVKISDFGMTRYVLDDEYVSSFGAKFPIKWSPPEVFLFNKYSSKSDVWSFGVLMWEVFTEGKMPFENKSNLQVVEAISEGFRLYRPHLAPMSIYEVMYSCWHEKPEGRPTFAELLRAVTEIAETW
Procedure: (§1) The in vitro kinase assays were performed at Nanosyn utilizing micro-fluidic detection technology. The test compounds were serially pre-diluted in DMSO and added, by the acoustic dispensing (Labcyte® 550), directly to 384well assay plates into 10 uL of a buffer with enzyme comprising: 100 mM HEPES, pH7.5, 5 mM MgCl2, 0.1% bovine serum albumin, 1 mM DTT, 0.01% Triton X-100 and the enzyme. Final DMSO concentration was maintained at 1% in all samples, including the controls. The reactions were initiated by addition of ATP (to the specified concentration) and the fluorescently labeled peptide substrate to a final concentration of 1 uM, and incubated for 3 hours at 25° C. Following incubation, the reactions were quenched by addition of 40 μL of termination buffer (100 mM HEPES, pH7.5, 0.01% Triton X-100, 50 mM EDTA). Terminated plates were analyzed using Caliper LabChip® 3000 microfluidic electrophoresis instrument (Caliper Life Sciences/Perkin Elmer). The enzymatic modification of the peptide substrate (phosphorylation) results in a change of net charge enabling electrophoretic separation of product from substrate. As substrate and product are separated by electrophoresis, two peaks of fluorescence are observed. Change in the relative fluorescence intensity of the substrate and product peaks was the parameter measured, reflecting enzyme activity. In the presence of inhibitor, the ratio between product and substrate is altered: signal of the product decreases, while the signal of the substrate increases. Activity in each test sample was determined as the product to sum ratio (PSR): P/(S+P), where P is the peak height of the product and S is the peak height of the […]. For each compound, enzyme activity was measured at 12 concentrations spaced by 3× dilution intervals. Negative control samples (0%-inhibition in the absence of inhibitor, DMSO only) and positive control samples (100%-inhibition, in the absence of enzyme or in the presence of control inhibitor) were assembled in replicates of four and were used to calculate %-inhibition values in the presence of compounds. Percent inhibition (Pinh) was determined using the following equation: Pinh=(PSR0%−PSRinh)/(PSR0%−PSR100%)*100, where PSRinh is the product sum ratio in the presence of inhibitor, PSR0% is the product sum ratio in the absence of inhibitor and PSR100% is the product sum ratio in 100%-inhibition control samples. To determine IC50 values, the inhibition curves (Pinh versus inhibitor concentration) were fitted by 4 parameter sigmoid dose-response model using XLfit software (IDBS).

Tec kinase = Tec kinase (Homo sapiens (Human), UniProt P42680); assay: Tec kinase inhibition assay; assay type: biochemical; details: micro-fluidic detection, 3 hours at 25° C.
Sequence of Tec kinase (P42680 whole entry): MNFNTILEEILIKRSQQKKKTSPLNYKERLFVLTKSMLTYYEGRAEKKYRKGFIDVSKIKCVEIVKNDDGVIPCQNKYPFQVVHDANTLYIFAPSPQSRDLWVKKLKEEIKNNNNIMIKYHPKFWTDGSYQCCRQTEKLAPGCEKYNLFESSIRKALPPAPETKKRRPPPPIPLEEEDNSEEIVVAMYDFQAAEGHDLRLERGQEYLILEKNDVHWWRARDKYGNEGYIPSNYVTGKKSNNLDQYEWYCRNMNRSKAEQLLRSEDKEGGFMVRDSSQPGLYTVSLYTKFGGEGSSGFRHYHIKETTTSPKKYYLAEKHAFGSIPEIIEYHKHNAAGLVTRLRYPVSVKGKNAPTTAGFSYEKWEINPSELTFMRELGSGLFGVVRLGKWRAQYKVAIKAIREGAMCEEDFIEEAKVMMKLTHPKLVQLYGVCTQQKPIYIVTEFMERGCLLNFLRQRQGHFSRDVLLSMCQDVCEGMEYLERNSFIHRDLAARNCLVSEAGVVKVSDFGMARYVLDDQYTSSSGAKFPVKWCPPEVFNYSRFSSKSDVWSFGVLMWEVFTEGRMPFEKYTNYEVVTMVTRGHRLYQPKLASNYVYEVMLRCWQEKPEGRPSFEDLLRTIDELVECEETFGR
Procedure: as §1, with “[…],” for “P/(S+P),”

| EC50 (RLK/TXK) | EC50 (Tec kinase) | Compound | EC50 (Human PBMCs) |
| --- | --- | --- | --- |
| < 10 nM | 10 to 100 nM | C=CC(=O)Nc1cccc(-n2c(NC(=O)c3ccno3)nc3cc(CN[C@@H](C)C(C)(C)C)ccc32)c1 [Compound 38] | 10 to 100 nM |
| < 10 nM | 10 to 100 nM | C=CC(=O)Nc1cccc(-n2c(NC(=O)c3ccnn3C)nc3cc(CN[C@@H](C)C(C)(C)C)ccc32)c1 [Compound 28] | 10 to 100 nM |
| < 10 nM | 10 to 100 nM | C=CC(=O)Nc1cccc(-n2c(NC(=O)c3ccc(C(F)F)s3)nc3cc(CN[C@@H](C)C(C)(C)C)ccc32)c1 [Compound 2] | 10 to 100 nM |
| < 10 nM | 10 to 100 nM | C=CC(=O)Nc1cccc(-n2c(NC(=O)c3cccc(C#N)c3)nc3cc(CN[C@@H](C)C(C)(C)C)ccc32)c1 [Compound 9] | 10 to 100 nM |
| < 10 nM | < 10 nM | C=CC(=O)Nc1cccc(-n2c(NC(=O)c3ccc(-c4cnco4)s3)nc3cc(CN[C@@H](C)C(C)(C)C)ccc32)c1 [Compound 25] | < 10 nM |

— patent US10562893B2, “Benzimidazoles derivatives as Tec kinases family inhibitors” (GB005, Inc., priority 2015, dated 2020)
